Assay results published in patent US12269805B2, “Inhibitors of platelet function and methods for use of the same” (THE REGENTS OF THE UNIVERSITY OF MICHIGAN, priority 2018, dated 2025).
Where two headings read alike, the source gives them in different places. Values belong to the compound of their own block, whether it stands above or below them.

Legend:
thrombus formation = conditions: cited from earlier work
[1] = Pharmacokinetic study: compound concentration in mouse blood plasma after PO and IV administration; type: in vivo, mice; conditions: for Concentration in Plasma, Mouse 2: value marked as outlier; for concentration at 2 h / concentration at 4 h / concentration at 7 h: mouse, plasma, 30 mg/kg
Method: The blood plasma concentration of compound A3 in mice was determined following per os, oral compound administration (“PO”) and intravenous (“IV”) administration
Calibration curve. The concentration range was evaluated from 1-5000 ng/ml for compound A3. The curve was built with linear regression with weighing (1/X2). The linear regression analysis was performed by plotting the peak area ratio (y) against the concentration (x) in ng/mL.
Instrument Conditions. The LC-MS and mass spectrometry conditions for the compounds tested are shown below.
Results. The individual and average compound A3 concentration-time data for IV and PO dosed groups are listed in Table 1, and graphically presented in FIG. 1.

[2] = tested on: phospho-VASP (serine 157) in washed human platelets; assay: Vasodilator-stimulated phosphoprotein phosphorylation in human platelets (Western blot); type: cell-based; conditions: washed human platelets treated for one minute; 5 nm to 20 μM tested
Method: Citrated whole blood was centrifuged (200 g for 10 min) to isolate platelet-rich plasma. Platelet-rich plasma was treated with acid citrate dextrose (2.5% sodium citrate, 1.5% citric acid, 2.0% D-glucose) and apyrase (0.02 U/mL), and then centrifuged (2000 g for 10 mins) to pellet the platelets. Platelets were resuspended at 3.0×10^8 platelets/mL in Tyrode's buffer (10 mM HEPES, 12 mM NaHCO3, 127 mM NaCl, 5 mM KCl, 0.5 mM NaH2PO4, 1 mM MgCl2, and 5 mM glucose) unless otherwise stated.
Washed platelets were treated with forskolin (0.5 μM), 12-HETre (20 μM), or compound A3 (5 nm, 10 nm, 25 nm, 50 nm, 100 n, 250 nm, 1 μM, 5 μM, 10 μM, and 20 μM) for one minute, then directly lysed in 5× Laemmli sample buffer (1.5 M Tris-HCl, pH 6.8, glycerol, 5% β-mercaptoethanol, 10% sodium dodecyl sulfate (SDS), and 1% bromophenol blue). The samples were boiled for five minutes and then run on a 10% SDS-PAGE gel. The levels of total and phospho-VASP (serine 157) were quantified by Western Blot using an Odyssey imaging system (LI-CoR). […] Compound A3 induced VASP phosphorylation at a concentration as low as 10 nm.

platelets = conditions: cited from earlier work

Compound: CCCCC/C=C\C[C@H](O)/C=C/C=C\CCCCCCC(=O)O [Compound 12-HETrE, 12(S)-hydroxyeicosatetrienoic acid]
Thrombus formation following vessel injury (thrombus formation; irrespective of 12-LOX expression): potently impaired thrombus formation

Concentration in Plasma, Mouse 2 ([1]; PO 30 mg/kg, 2 h): *809.0 ng/ml
Concentration in Plasma, Mouse 2 ([1]; PO 30 mg/kg, 4 h): *812.7 ng/ml
concentration at 2 h ([1]; iv, IV 30 mg/kg, 2 h, n=3, read-out: Concentration in Plasma, Mean): 164 ng/mL
concentration at 2 h ([1]; iv, IV 30 mg/kg, 2 h, read-out: Concentration in Plasma, Mouse 1): 203 ng/mL
concentration at 2 h ([1]; iv, IV 30 mg/kg, 2 h, read-out: Concentration in Plasma, Mouse 2): 158 ng/mL
concentration at 2 h ([1]; iv, IV 30 mg/kg, 2 h, read-out: Concentration in Plasma, Mouse 3): 131 ng/mL
concentration at 4 h ([1]; iv, IV 30 mg/kg, 4 h, n=3, read-out: Concentration in Plasma, Mean): 106 ng/mL
concentration at 4 h ([1]; iv, IV 30 mg/kg, 4 h, read-out: Concentration in Plasma, Mouse 1): 135 ng/mL
concentration at 4 h ([1]; iv, IV 30 mg/kg, 4 h, read-out: Concentration in Plasma, Mouse 2): 80.3 ng/mL
concentration at 4 h ([1]; iv, IV 30 mg/kg, 4 h, read-out: Concentration in Plasma, Mouse 3): 102 ng/mL
concentration at 7 h ([1]; iv, IV 30 mg/kg, n=3, read-out: Concentration in Plasma, Mean): 97.6 ng/mL
concentration at 7 h ([1]; iv, IV 30 mg/kg, read-out: Concentration in Plasma, Mouse 1): 123 ng/mL
concentration at 7 h ([1]; iv, IV 30 mg/kg, read-out: Concentration in Plasma, Mouse 2): 76.9 ng/mL
concentration at 7 h ([1]; iv, IV 30 mg/kg, read-out: Concentration in Plasma, Mouse 3): 92.7 ng/mL
concentration at 2 h ([1]; po, PO 30 mg/kg, 2 h, outlier left out, read-out: Concentration in Plasma, Mean): 119 ng/mL
concentration at 2 h ([1]; po, PO 30 mg/kg, 2 h, read-out: Concentration in Plasma, Mouse 1): 186 ng/mL
concentration at 2 h ([1]; po, PO 30 mg/kg, 2 h, read-out: Concentration in Plasma, Mouse 3): 52.5 ng/mL
concentration at 4 h ([1]; po, PO 30 mg/kg, 4 h, outlier left out, read-out: Concentration in Plasma, Mean): 34.5 ng/mL
concentration at 4 h ([1]; po, PO 30 mg/kg, 4 h, read-out: Concentration in Plasma, Mouse 1): 46.5 ng/mL
concentration at 4 h ([1]; po, PO 30 mg/kg, 4 h, read-out: Concentration in Plasma, Mouse 3): 22.5 ng/mL
concentration at 7 h ([1]; po, PO 30 mg/kg, n=3, read-out: Concentration in Plasma, Mean): 28.3 ng/mL
concentration at 7 h ([1]; po, PO 30 mg/kg, read-out: Concentration in Plasma, Mouse 1): 46.3 ng/mL
concentration at 7 h ([1]; po, PO 30 mg/kg, read-out: Concentration in Plasma, Mouse 2): 19.1 ng/mL
concentration at 7 h ([1]; po, PO 30 mg/kg, read-out: Concentration in Plasma, Mouse 3): 19.3 ng/mL
Compound: CC(C)N(CCCCSc1n[nH]c(=O)[nH]1)c1cnc(-c2ccccc2)c(-c2ccccc2)n1 [Compound A3, 5-((4-((5,6-diphenylpyrazin-2-yl)(isopropyl)amino)butyl)thio)-2,4-dihydro-3H-1,2,4-triazol-3-one]
Lowest concentration that induced VASP phosphorylation [2]: 10 nm

Compound: CCCCC/C=C\C/C=C\C/C=C\CCCCCCC(=O)O [DGLA, Dihomo-γ-linolenic acid]
Platelet aggregation ex vivo (platelets): inhibit platelet aggregation ex vivo
Thrombus formation (thrombus formation; 12-LOX−/− mice): unable to inhibit thrombus formation
Platelet thrombus formation in vivo (thrombus formation; following an insult to the vessel wall): inhibited platelet thrombus formation in vivo
